Test results from patent US10791740B2, “Enhancement of antibiotic efficacy” (priority 2014, dated 2020).
Values after ≈ are worked out from the molar mass of the structure shown. Like-named read-outs stand apart in the source and are kept apart here.

Experiments:
[1] = cited from earlier work
[2] = system: tetracycline resistant E. coli; assay type: cell-based, Escherichia coli; settings: for MIC: single agent, Table 5; for MIC (μM) of amphiphile alone: tetracycline resistant E. coli, Tables 6 and 7
Text: (§1) Certain aspects are drawn to a method for increasing or enhancing the antimicrobial activity of an antimicrobial agent. As used herein, the “antimicrobial activity” of an antimicrobial agent is defined as the property of a substance to inhibit the growth and reproduction of a microbial organism or to kill it. Common terms generally applied to bacteria are bacteriostatic (stops growth) and bactericidal (kills bacteria). Depending on the concentrations applied, microbial growth can be slowed or stopped in comparison to concurrent experiments conducted in the absence of an antimicrobial agent. Depending on the concentrations applied, additional microbe death can occur in comparison to concurrent experiments conducted in the absence of an antimicrobial agent. […] The MIC is the lowest concentration of any agent having antimicrobial activity that inhibits the growth of a microorganism as judged by visual inspection. MIC can be determined by inoculating media with the organism and adding the antimicrobial agent diluted successively in half.
(§2) Among the organisms studied are several strains of the bacterium E. coli.
N,N′-Dibenzyl-4,13-diaza-18-crown-6 is referred to in the table as dibenzyldiaza-18-crown-6.
(§3) Minimal Inhibitory Concentration (MIC) Procedure. […] Prepare initial concentration of all the compounds required. • 5. […] Vortex each test tube for 2-3 seconds. • 11.

E. coli [3] = settings: Journal of the American Chemical Society 2002, 124, 9022-3, cited from earlier work
HEK-293 cells = assay: MTT assay of toxicity to HEK-293 cells
Description: The toxicity of C6. C8, C10. C11 and C14 lariat ethers to HEK-293 cells was determined by using an MTT assay. […] The abscissa is a logarithmic scale for the concentrations ranging from 1 μM to 1000 μM (1 mM) used in the experiment. The ordinate represents percent survival of HEK-293 cells.
Growth medium containing DMEM with high glucose (ATCC). 10% fetal bovine serum (FBS: Sigma-Aldrich) and 10 μg/mL of blasticidin (Thermo-Fischer) was prepared. HEK 293 cells were thawed out from cryo-preserved samples in 10 mL growth media, centrifuged at 500 rpm for 10 minutes to remove preservative. The cells were then resuspended in fresh growth medium and cultured using a T-75 flask (Thermo-Fischer) at 37° C. and 5% CO2. Cells were monitored for confluence and growth medium was replaced every 48 h, until cells were placed onto a 96-well plate for toxicity studies.
After reaching 80-90% confluence, cells were trypsinized and suspended in media containing DMEM and 10% FBS (no antibiotics). The cells were counted on a hemacytometer and plated at a density of 20,000 cells per well in a 96-well plate and grown for 24 hours to reach 60-70% confluence. DMSO stocks of C6, C8, C10, C11 and C14 diaza-18-crown-6 lariat ethers were prepared at […] and diluted 1:10 to get working concentrations of 20 mM, 2 mM, and 0.2 mM. Each stock was further diluted […] into DMEM supplemented with 10% FBS to get final concentrations of 1 mM, 0.1 mM, 0.01 mM (10 μM) and 0.001 mM (1 μM). The original media was then removed from the cells and replaced with 200 μL media containing the desired concentration of compound. Three wells were used for each concentration providing experimental triplicates. […] The absorbance was measured at 570 nm and nonspecific absorbance was corrected at 650 nm, using SpectraMax340 micro plate reader.
The experiment was performed in triplicate and the average of percent survival of three experiments was determined. […] The lethal dose 50 (LD50) for each compound was calculated by using the equation for a logarithmic regression curve.

S. cerevisiae = assay: MIC determination, S. cerevisiae (Table 1); assay type: cell-based, Saccharomyces cerevisiae; settings: single agent
Text: (§4) Certain aspects are drawn to a method for increasing or enhancing the antimicrobial activity of an antimicrobial agent. As used herein, the “antimicrobial activity” of an antimicrobial agent is defined as the property of a substance to inhibit the growth and reproduction of a microbial organism or to kill it. Common terms generally applied to bacteria are bacteriostatic (stops growth) and bactericidal (kills bacteria). Depending on the concentrations applied, microbial growth can be slowed or stopped in comparison to concurrent experiments conducted in the absence of an antimicrobial agent. Depending on the concentrations applied, additional microbe death can occur in comparison to concurrent experiments conducted in the absence of an antimicrobial agent. The results of minimum inhibitory concentration (MIC) evaluations and growth curves are presented herein and the conditions are specified. The MIC is the lowest concentration of any agent having antimicrobial activity that inhibits the growth of a microorganism as judged by visual inspection. MIC can be determined by inoculating media with the organism and adding the antimicrobial agent diluted successively in half. […] Reference herein to increasing or enhancing activity, efficacy, potency, and the like are used interchangeably to mean that when the synthetic amphiphile is present, the ability of the antimicrobial agent to inhibit the growth of or to kill an organism will be manifested at a concentration lower than would be required to achieve the same results in the absence of said synthetic amphiphile.
(§5) Among the organisms studied are several strains of the bacterium E. coli. […] Experiments were conducted to determine the MIC values for the synthetic amphiphiles known as lariat ethers according to the procedures described in Antimicrobial M07-A9: Methods for Dilution Antimicrobial Susceptibility Tests for Bacteria that Grow Aerobically; Clinical and Laboratory Standards Institute, 2012; Vol. 32, 67 pp. MIC values so determined for several lariat ethers and for several antibiotics are shown in Table 1.

K-12 E. coli [4] = assay: Combination of amphiphile and antibiotic against K-12 E. coli
Description: (§6) Steps 1-7, described in the MIC procedure, shown in Example 2, were followed. • 2. While the E. coli grew, the appropriate volume of compound was added to each test tube. • 3. Antibiotics were added at the required volume of solution to obtain the desired concentration in each test tube. […] Each test tube was vortexed for 2-3 seconds. • 5. Steps 10-12 from the MIC procedure, shown in Example 2, were then executed.

K-12 E. coli [5] = assay: MIC of single agents against K-12 E. coli
B. stubtilis = assay: MIC determination, B. subtilis (Table 1); assay type: cell-based, Bacillus subtilis; settings: single agent
Text: as §4, §5

DH5α E. coli [6] = assay: Inhibitory concentration (IC50) to DH5α E. coli cells (FIG. 4); assay type: cell-based, Escherichia coli; settings: DH5α E. coli, FIG. 4
Text: Two commonly used abbreviations are LD50 and IC50. The former is the concentration of an agent that comprises a lethal dose to 50% of the organism under study. The latter is the concentration of agent that inhibits growth of 50% of the organism under study. […] The abscissa represents the number of (CH2) groups in spacer chains. The ordinate is logarithmic and reflects the concentrations (in μM) of the various lariat ethers used.

[7] = system: tetracycline resistant E. coli
Description: • 1. Steps 1-7, described in the MIC procedure, shown in Example 2, were followed. • 2. While the E. coli grew, the appropriate volume of compound was added to each test tube. • 3. Antibiotics were added at the required volume of solution to obtain the desired concentration in each test tube. […] Each test tube was vortexed for 2-3 seconds. • 5. Steps 10-12 from the MIC procedure, shown in Example 2, were then executed.

DH5α E. coli [8] = assay: Combination of lariat ether and antibiotic against DH5α E. coli; settings: 0.4 vol-% DMSO
Description: The volume of water added was between 12 to 0.5 μL. The volume of water added was not constant but the volume of media was changed so that the total volume was kept constant at 2 mL.
as §6

E. coli [9] = assay: MIC determination, E. coli (Table 1); assay type: cell-based, Escherichia coli; settings: single agent
Text: as §1, §2, §3

DH5α E. coli [10] = assay: MIC of single agents against DH5α E. coli; assay type: cell-based, Escherichia coli
Text: as §1, §2, §3

c1ccc(CN2CCOCCOCCN(CCCCCCCCCCN3CCOCCOCCN(CCCCCCCCCCN4CCOCCOCCN(Cc5ccccc5)CCOCCOCC4)CCOCCOCC3)CCOCCOCC2)cc1
cation transport in liposome membranes ([1]; thickest DEPC membranes): nearly inactive | MIC [2]: 35 ± 5 µM (≈ 43.5 µg/mL) | MIC (μM) of amphiphile alone [2]: 35 µM

c1ccc(CN2CCOCCOCCN(CCCCCCCCN3CCOCCOCCN(CCCCCCCCN4CCOCCOCCN(Cc5ccccc5)CCOCCOCC4)CCOCCOCC3)CCOCCOCC2)cc1 [C8 hydraphile]
cation transport in liposome membranes ([1]; DMPC, DOPC, or DEPC membranes): failed to transport | toxicity to E. coli (E. coli [3]; listed as C8 benzyl hydraphile): did not | toxicity to E. coli (E. coli [3]; listed as hydraphile having —(CH2)8— spacers): did not exhibit toxicity | MIC [2]: 250 ± 10 µM (≈ 297 µg/mL) | MIC (μM) of amphiphile alone [2]: 250 µM

CCCCCCCCCCCN1CCOCCOCCN(CCCCCCCCCCC)CCOCCOCC1 [C11 lariat ether, N,N′-di-n-undecyl-4,13-diaza-18-crown-6]
LD50 to HEK-293 (HEK-293 cells): 22 µM | MIC (μM) S. cerevisiae (S. cerevisiae): 1.5 µM (≈ 0.856 µg/mL) | Fold Enhancement (K-12 E. coli [4]; Rifampicin with 6 μM C11 lariat ether): 2 fold | Fold Enhancement (K-12 E. coli [4]; Tetracycline with 6 μM C11 lariat ether): ~2 fold | MIC (μM) of amphiphile alone (K-12 E. coli [5]): 24 µM | MIC (μM) B. stubtilis (B. stubtilis): 9 µM (≈ 5.14 µg/mL) | IC50 (DH5α E. coli [6]): 12 µM | Fold Enhancement ([7]; Tetracycline with 8 μM C11 lariat ether): 5 fold | Fold Enhancement ([7]; Tetracycline with 12 μM C11 lariat ether): 10 fold | Fold Enhancement ([7]; Tetracycline with 16 μM C11 lariat ether): 10 fold | Fold Enhancement ([7]; Tetracycline with 18 μM C11 lariat ether): 10 fold | Fold Enhancement (DH5α E. coli [8]; rifampicin with 8 μM n-C11 lariat ether): 4 fold | Fold Enhancement (DH5α E. coli [8]; rifampicin with 12 μM n-C11 lariat ether): 10 fold | Fold Enhancement (DH5α E. coli [8]; rifampicin with 16 μM n-C11 lariat ether): 10 fold | Fold Enhancement (DH5α E. coli [8]; rifampicin with 18 μM n-C11 lariat ether): 20 fold | Fold Enhancement (DH5α E. coli [8]; tetracycline with 4 μM n-C11 lariat ether): 4 fold | Fold Enhancement (DH5α E. coli [8]; tetracycline with 12 μM n-C11 lariat ether): 12 fold | Fold Enhancement (DH5α E. coli [8]; tetracycline with 16 μM n-C11 lariat ether): 48 fold | Fold Enhancement (DH5α E. coli [8]; tetracycline with 18 μM n-C11 lariat ether): 8 fold | MIC [2]: 24 µM (≈ 13.7 µg/mL) | MIC (μM) of amphiphile alone [2]: 24 µM | MIC (E. coli [9]): 24 µM (≈ 13.7 µg/mL) | MIC (μM) of lariat ether alone (DH5α E. coli [10]; DH5α E. coli, Tables 2 and 3): 24 µM | MIC to DH5α E. coli (DH5α E. coli [10]; single agent, values of the running text): 24 µM
